According to ChEMBL document CHEMBL1129762, “Synthesis and antibacterial activity of 4- and 8-methoxy trinems” (1996):

What was measured:
Assay type in all cases: functional
Staphylococcus aureus [1] = assay: In vitro antibacterial activity against Staphylococcus aureus 853.
Clostridium perfringens = assay: In vitro antibacterial activity against Clostridium perfringens 615E
Escherichia coli [2] = assay: In vitro antibacterial activity against Escherichia coli 1850
Escherichia coli [3] = assay: In vitro antibacterial activity against Escherichia coli 1919
Staphylococcus aureus [4] = assay: In vitro antibacterial activity against Staphylococcus aureus 663E.
Enterococcus faecalis = assay: In vitro antibacterial activity against Enterococcus faecalis 850.

Q: With `C[C@@H](O)[C@H]1C(=O)N2C(C(=O)O)=C(SCCNC=N)C[C@H]12.O` [IMIPENEM] as the molecule, how does the MIC (Staphylococcus aureus [1]) read?
A: Its MIC is 0.1 µg/mL.

Q: And the MIC (Clostridium perfringens)?
A: Its MIC is 30 µg/mL.

Q: And the MIC (Escherichia coli [2])?
A: Its MIC is 0.5 µg/mL.

Q: What about the MIC (Escherichia coli [3]) of the same molecule?
A: The MIC was 0.5 µg/mL.

Q: And the MIC (Staphylococcus aureus [4])?
A: The MIC was 0.12 µg/mL.

Q: And the MIC (Enterococcus faecalis)?
A: The MIC was 2 µg/mL.

Q: For `CO[C@@H]1CCC[C@H]2C1=C(C(=O)[O-])N1C(=O)[C@H]([C@@H](C)O)C21.[K+]` (some centres not stated), which MIC (Staphylococcus aureus [1]) is on record?
A: Its MIC is 0.5 µg/mL.

Q: And the MIC (Clostridium perfringens)?
A: The MIC was 120 µg/mL.

Q: What about the MIC (Escherichia coli [2]) of the same molecule?
A: The MIC was 1 µg/mL.

Q: And the MIC (Escherichia coli [3])?
A: The MIC was 4 µg/mL.

Q: What about the MIC (Staphylococcus aureus [4]) of the same molecule?
A: The MIC was 0.5 µg/mL.

Q: And the MIC (Enterococcus faecalis)?
A: Its MIC is 8 µg/mL.

Q: Which MIC (Staphylococcus aureus [1]) does the source give for `CO[C@H]1CCC[C@H]2C1=C(C(=O)[O-])N1C(=O)[C@H]([C@@H](C)O)C21.[K+]` (some centres not stated) here?
A: The MIC was 0.25 µg/mL.

Q: And the MIC (Clostridium perfringens)?
A: Its MIC is 30 µg/mL.

Q: And the MIC (Escherichia coli [2])?
A: Its MIC is 0.5 µg/mL.

Q: And the MIC (Escherichia coli [3])?
A: Its MIC is 0.5 µg/mL.

Q: And the MIC (Staphylococcus aureus [4])?
A: Its MIC is 0.25 µg/mL.

Q: And the MIC (Enterococcus faecalis)?
A: The MIC was 1 µg/mL.

Q: With `CO[C@@]12CCCCC1=C(C(=O)[O-])N1C(=O)[C@H]([C@@H](C)O)[C@H]12.[K+]` as the molecule, how does the MIC (Staphylococcus aureus [1]) read?
A: The MIC was 4 µg/mL.

Q: And the MIC (Clostridium perfringens)?
A: Its MIC is 2000 µg/mL.

Q: And the MIC (Escherichia coli [2])?
A: Its MIC is 8 µg/mL.

Q: What about the MIC (Escherichia coli [3]) of the same molecule?
A: Its MIC is 4 µg/mL.

Q: What about the MIC (Staphylococcus aureus [4]) of the same molecule?
A: Its MIC is 4 µg/mL.

Q: And the MIC (Enterococcus faecalis)?
A: The MIC was 16 µg/mL.

Q: For `CO[C@H]1CCC[C@@H]2C1=C(C(=O)[O-])N1C(=O)[C@H]([C@@H](C)O)C21.[K+]` (some centres not stated), which MIC (Staphylococcus aureus [1]) is on record?
A: The MIC was 1 µg/mL.

Q: What about the MIC (Clostridium perfringens) of the same molecule?
A: The MIC was 4000 µg/mL.

Q: And the MIC (Escherichia coli [2])?
A: The MIC was 32 µg/mL.

Q: And the MIC (Escherichia coli [3])?
A: The MIC was 16 µg/mL.

Q: And the MIC (Staphylococcus aureus [4])?
A: The MIC was 2 µg/mL.

Q: And the MIC (Enterococcus faecalis)?
A: The MIC was 32 µg/mL.

Q: For `CO[C@]12CCCCC1=C(C(=O)[O-])N1C(=O)[C@H]([C@@H](C)O)[C@H]12.[K+]`, which MIC (Staphylococcus aureus [1]) is on record?
A: The MIC was 8 µg/mL.

Q: And the MIC (Clostridium perfringens)?
A: Its MIC is 2000 µg/mL.

Q: What about the MIC (Escherichia coli [2]) of the same molecule?
A: Its MIC is 32 µg/mL.

Q: What about the MIC (Escherichia coli [3]) of the same molecule?
A: The MIC was 8 µg/mL.

Q: And the MIC (Staphylococcus aureus [4])?
A: The MIC was 4 µg/mL.

Q: What about the MIC (Enterococcus faecalis) of the same molecule?
A: The MIC was 32 µg/mL.

Q: What does the source list for `CO[C@@H]1CCC[C@@H]2C1=C(C(=O)[O-])N1C(=O)[C@H]([C@@H](C)O)C21.[K+]` (some centres not stated)?
A: MIC (Staphylococcus aureus [1]): 2 µg/mL; MIC (Clostridium perfringens): 1000 µg/mL; MIC (Escherichia coli [2]): 16 µg/mL; MIC (Escherichia coli [3]): 16 µg/mL; MIC (Staphylococcus aureus [4]): 2 µg/mL; MIC (Enterococcus faecalis): 32 µg/mL
